Assays:
[1] = tested on: Thermomyces lanuginosus CBS 586.94 phytase, purified recombinant, SEQ ID NO:2; assay: Steady-state kinetics by substrate titration, assay of inorganic phosphate liberated from corn phytic acid; assay type: biochemical
Description: (§1) All characterizations were performed with the purified recombinant Thermomyces lanuginosus CBS 586.94 phytase described in Example 11. Comparisons were also made where noted with a standard of an Aspergillus niger (ficuum) phytase obtained from Novo Nordisk A/S, Bagsverd, Denmark.
(§2) Enzyme kinetics studies. Enzyme kinetics studies were performed on the Thermomyces phytase and the Aspergillus niger phytase. The studies were accomplished by assay of inorganic phosphate liberated from corn phytic acid (Sigma Chemical Co., St. Louis, Mo.). Standard enzyme reactions were carried out for 30 minutes at 37° C. and pH 5.5 in 0.5% w/w phytic acid. The reaction was quenched by the addition of an equal volume of 15% w/w trichloroacetic acid. After cooling, 100 μl of the resulting mixture was diluted into 1.0 ml of glass distilled water. The sample was incubated at 50° C. for 5 minutes. Color reagent (1.0 ml) was added and the 50° C. incubation was continued for 15 minutes. The absorbance of a 200 μl aliquot was measured at 690 nm with a Molecular Devices Thermomax Microplate Reader. The color reagent is composed of 6N sulfuric acid: water: 2.5% (w/v) ammonium heptamolybdate, tetrahydrate: 10% ascorbate (aqueous) in a ratio of 1:2:1:1 and prepared fresh on a daily basis. Quantitation was based on a standard curve generated with a 10 mM sodium monobasic phosphate standard. One unit U) is defined as a μmole of inorganic phosphate released per minute at 37° C. and pH 5.5.
Steady-state kinetics measurements were made by substrate titration. Phytate concentrations were 2.16, 1.08, 0.541, 0.216, 0.108, and 0.0758 mM for the purposes of Km determination. Phytate concentrations of 1.08, 0.541, 0.216 and 0.108 mM in the presence or absence of 1 mM sodium monobasic phosphate were used for the purpose of evaluating product inhibition.

Aspergillus phytase = biological target: T1, Aspergillus phytase (Aspergillus niger, UniProt P34752); details: Ullah, 1988, Preparative Biochemistry 18: 443-458; read-out: Ki (phosphate, competitive inhibitor); cited from earlier work
T1 sequence (P34752 24-467): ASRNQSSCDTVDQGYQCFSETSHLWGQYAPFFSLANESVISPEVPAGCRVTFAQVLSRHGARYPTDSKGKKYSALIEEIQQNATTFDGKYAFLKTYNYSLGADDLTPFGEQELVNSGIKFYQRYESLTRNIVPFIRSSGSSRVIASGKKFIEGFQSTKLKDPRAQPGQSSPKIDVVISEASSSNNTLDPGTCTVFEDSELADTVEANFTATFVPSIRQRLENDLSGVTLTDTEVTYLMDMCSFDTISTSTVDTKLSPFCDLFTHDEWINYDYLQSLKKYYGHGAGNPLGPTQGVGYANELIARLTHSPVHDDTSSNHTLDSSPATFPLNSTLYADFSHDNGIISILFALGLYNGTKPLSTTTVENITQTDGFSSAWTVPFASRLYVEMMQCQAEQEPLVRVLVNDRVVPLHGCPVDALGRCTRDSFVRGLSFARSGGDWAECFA

[2] = substrate: O=P(O)(O)O[C@H]1[C@H](OP(=O)(O)O)[C@@H](OP(=O)(O)O)[C@H](OP(=O)(O)O)[C@@H](OP(=O)(O)O)[C@H]1OP(=O)(O)O; assay: Steady-state kinetics by substrate titration, assay of inorganic phosphate liberated from corn phytic acid; assay type: biochemical, Aspergillus niger (ficuum); details: other: 37° C., pH 5.5, phytate 0.0758-2.16 mM
Description: as §1
as §2, with “One unit U) is defined as a μmole of inorganic phosphate released per minute at 37° C. and pH 5.5.” left out

`O=P(O)(O)O[C@H]1[C@H](OP(=O)(O)O)[C@@H](OP(=O)(O)O)[C@H](OP(=O)(O)O)[C@@H](OP(=O)(O)O)[C@H]1OP(=O)(O)O` [phytate, myo-inositol hexakisphosphate] showed a Km ([1]; 37° C., pH 5.5, phytate 0.0758-2.16 mM, read-out: apparent Km with respect to phytate) of ~110 µM.

For `O=P([O-])(O)O.[Na+]` [phosphate, sodium monobasic phosphate], the Ki (Aspergillus phytase) is given as 1.9 mM, the “product inhibition with 1 mM phosphate present” value ([1]; 1 mM sodium monobasic phosphate, phytate 0.108-1.08 mM) is given as “failed to reveal any type of inhibition” and the Ki ([1]; estimated, phytate 0.108-1.08 mM with or without 1 mM sodium monobasic phosphate) is given as > 3 mM.

B1: Aspergillus niger (ficuum) phytase, standard obtained from Novo Nordisk A/S (Aspergillus niger) (protein)
chain: ASRNQSSCDTVDQGYQCFSETSHLWGQYAPFFSLANESVISPEVPAGCRVTFAQVLSRHGARYPTDSKGKKYSALIEEIQQNATTFDGKYAFLKTYNYSLGADDLTPFGEQELVNSGIKFYQRYESLTRNIVPFIRSSGSSRVIASGKKFIEGFQSTKLKDPRAQPGQSSPKIDVVISEASSSNNTLDPGTCTVFEDSELADTVEANFTATFVPSIRQRLENDLSGVTLTDTEVTYLMDMCSFDTISTSTVDTKLSPFCDLFTHDEWINYDYLQSLKKYYGHGAGNPLGPTQGVGYANELIARLTHSPVHDDTSSNHTLDSSPATFPLNSTLYADFSHDNGIISILFALGLYNGTKPLSTTTVENITQTDGFSSAWTVPFASRLYVEMMQCQAEQEPLVRVLVNDRVVPLHGCPVDALGRCTRDSFVRGLSFARSGGDWAECFA
notes: purchased Novo Nordisk A/S, Bagsverd, Denmark
B1 showed a Km [2] of 200 µM.

— patent publication US5866118A, “Polypeptides having 3g6-phytase activity from thermomyces and nucleic acids encoding same” (Novo Nordisk Biotech, Inc., priority 1997, dated 1999)
